According to article PMC6010021, “Mono- and di-thiocarbamate inhibition studies of the δ-carbonic anhydrase TweCAδ from the marine diatom Thalassiosira weissflogii” (Journal of Enzyme Inhibition and Medicinal Chemistry, 2018):

Biological target: T1, TweCAδ (Conticribra weissflogii, UniProt Q5U9J1)
T1 construct: gene ca1; recombinant protein produced as reported earlier by the group
T1 sequence (Q5U9J1 1-281): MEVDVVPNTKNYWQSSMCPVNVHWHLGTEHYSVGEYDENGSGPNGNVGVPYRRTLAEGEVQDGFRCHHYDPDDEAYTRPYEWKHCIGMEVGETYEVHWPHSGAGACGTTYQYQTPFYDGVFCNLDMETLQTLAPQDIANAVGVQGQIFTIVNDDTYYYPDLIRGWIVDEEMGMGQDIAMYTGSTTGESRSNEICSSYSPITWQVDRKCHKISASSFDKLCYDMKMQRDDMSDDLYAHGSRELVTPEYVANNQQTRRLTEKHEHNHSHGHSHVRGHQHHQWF
Assay: stopped-flow CO2 hydrase assay
Assay type: biochemical
Details: read-out: RR^1NCS2M (16-36) / KI (nM)^a / TweCAδ

| Ki | Structure (SMILES) |
| --- | --- |
| > 20000 nM | O=C(O)C1COCCN1C(=S)S (stereo not shown) [compound 33, DTC 33] |
| 704 nM | NS(=O)(=O)c1ccc(CCNC(=S)S)cc1 [compound 36, DTC 36] |
| 897 nM | S=C(S)NCCc1ccccc1 [compound 35, DTC 35] |
| 8980 nM | O=C(O)C1CCN(C(=S)S)CC1 [compound 29, DTC 29] |
| 129 nM | O=C(CN1CCN(C(=O)S)CC1)NC1CCCCC1 [compound 9, MTC 9] |
| > 20000 nM | O=C(O)C1CCCCN1C(=S)S (stereo not shown) [compound 25, DTC 25] |
| 791 nM | O=C(CN1CCN(C(=S)S)CC1)NC1CCCCC1 [compound 34, DTC 34] |
| > 20000 nM | CN(Cc1ccccc1)C(=O)S [compound 10, MTC 10] |
| 67.7 nM | COc1ccc(CCNC(=O)S)cc1OC [compound 12, MTC 12] |
| 7990 nM | S=C(S)N[C@@H]1CN2CCC1CC2 [compound 22, DTC 22] |
| 8600 nM | OCCCCCNC(=S)S [compound 19, DTC 19] |
| 783 nM | CC(=O)NC1CCCN(C(=S)S)C1 (stereo not shown) [compound 30, DTC 30] |
| > 20000 nM | O=C(S)N1CCOCC1 [compound 6, MTC 6] |
| 487 nM | CN1CCN(NC(=O)S)CC1 [compound 7, MTC 7] |
| 8410 nM | CN(C)CCNC(=S)S [compound 16, DTC 16] |
| 1140 nM | CCCCN(CCCC)C(=O)S [compound 3, MTC 3] |
| > 20000 nM | CC1COCCN1C(=S)S (stereo not shown) [compound 32, DTC 32] |
| 1510 nM | O=C(S)N1CCN(c2cccc(Cl)c2)CC1 [compound 13, MTC 13] |
| > 20000 nM | OC1CCCN(C(=S)S)C1 (stereo not shown) [compound 24, DTC 24] |
| 8690 nM | OCCCNC(=S)S [compound 17, DTC 17] |
| > 20000 nM | CCOC(=O)CN(C)C(=O)S [compound 5, MTC 5] |
| > 20000 nM | S=C(S)N[C@H]1CN2CCC1CC2 [compound 21, DTC 21] |
| 1150 nM | O=C(S)N1CCN(c2ccc(C(F)(F)F)cc2)CC1 [compound 15, MTC 15] |
| 93.6 nM | O=C(O)[C@@H]1CCCN(C(=S)S)C1 [compound 27, DTC 27] |
| 997 nM | O=C(S)NCCc1ccccc1 [compound 11, MTC 11] |
| 556 nM | O=C(O)[C@H]1CCCN(C(=S)S)C1 [compound 28, DTC 28] |
| 8430 nM | O=C(O)C1CCCN(C(=S)S)C1 (stereo not shown) [compound 26, DTC 26] |
| > 20000 nM | S=C(S)NC1CN2CCC1CC2 (stereo not shown) [compound 20, DTC 20] |
| 1500 nM | O=C(S)N1CCN(c2ccc(F)cc2)CC1 [compound 14, MTC 14] |
| 7170 nM | OCCCCNC(=S)S [compound 18, DTC 18] |

| Structure (SMILES) | Ki |
| --- | --- |
| CC(C)CN(CC(C)C)C(=O)S [compound 4, MTC 4] | > 20000 nM |
| CCCN(CCC)C(=O)S [compound 1, MTC 1] | 807 nM |
| S=C(S)N1CCCCC1 [compound 23, DTC 23] | > 20000 nM |
| CCCCN(CC)C(=O)S [compound 2, MTC 2] | 783 nM |
